Results as given in US11766060B2, “Compositions comprising mogrosides, steviol glycosides and glycosylated derivatives thereof and methods of enhancing the mouthfeel or sweetness of consumables” (Sweet Green Fields, LLC, priority 2016, dated 2023).

Columns and labels:
[1] = Evaluation of taste profile compared to reference sugar solutions by panel (Example 3 method); format: in vivo, human; details: inclusion of thaumatin
Experimental: I. The components where mixed and then dissolved in aqueous citric acid (pH 3.8) with ultrasound at room temperature and left to equilibrate for 30 minutes.
The sample solutions were evaluated by 8 panelists that have been previously qualified for their taste acuity. Samples coded with triple digit numbers were given to the panelist randomly. Panelists tasted the samples randomly. After tasting a sample, every panelist was required to rinse their mouth with water and rest for 60 seconds. For the sweetness evaluation of each sample, the sample was tested in pairs with several sugar solutions of given sweetness, such as 5%, 6%, 7%, 8%, 9%, or 10% as standard reference samples. The sweetness of each sample was compared with those of the reference sugar solutions, and the sweetness was evaluated and recorded according to the judgment that the sweetness of the sample was similar to a specific sugar solution or between specific sugar solutions. The results were recorded as the mean value of the results provided by the panels.
For evaluation of taste profile, the samples were tested and were compared to reference sugar solutions. Panelists judged if the taste profile of sample solutions were similar to that of sugar.

[2] = Evaluation of the sweetness detection threshold (8 panelists rate sweet / not sweet); format: in vivo, human; details: at a 1 ppm level
Source text: The phrase “sweetness detection threshold” refers to the minimum concentration at which panelists consisting of 8 persons are able to detect sweetness in a composition, liquid or solid. This is further defined as provided in the Examples herein.
Threshold of sweetness refers to a concentration of a material that below a concentration where sweetness can be detected may still impart a flavor to the consumable (including water). When half of a trained panel of testers determines something is “sweet” at a given concentration, then the sample meets the threshold. When less than half of a panel of testers cannot discern sweetness at a given concentration, then concentrations of the substance below the sweetness level are considered a flavoring.
To evaluate the sweetness potency of various concentrations of GMG or MGV in aqueous solutions, aqueous solutions of GMG and MGV at various concentrations were prepared and were evaluated at room temperature. The sample solutions were evaluated by 8 panelists that were previously qualified for their taste acuity. Samples coded with triple digit numbers were given to a panelist randomly. Panelists tasted the samples randomly. After tasting a sample, every panelist was required to wash their mouth with water and rest for 60 seconds. Panelists gave ratings of “sweet” or “not sweet” to each sample.

[3] = pure thaumatin; cited from earlier work

## thaumatin
[1]
  taste profile of MGV: improved
[2]
  sweetness imparted to a composition: no sweetness
[3]
  sweetness threshold: 7 ppm
